Where “and” joins values, the source holds several entries; their conditions need not be identical. Equal entries are not always repeated. Entries after “also recorded” stand apart in the source; their conditions may differ. Where two headings read alike, the source gives them in different places. Blank lines part the entries; values can stand above or below the molecule they belong to.
Key:
[1] = system: GluE1αA m2 variant (S653G, I655T); assay type: cell-based, Trichoplax adhaerens; details: m2; agonist 1 mM
From the text: (§1) As noted, a model has been put forward that defines iGluR ligand specificity based on a set of key amino acids in the LBD of iGluRs[11]. […] To the best of our knowledge, whether these few positions are indeed solely responsible for ligand specificity, and moreover, can be altered to switch specificity for natural ligands, has not been experimentally tested. […] We also created a triple mutant, with an additional phenylalanine to tyrosine mutation at position 732 (F732Y; m3 variant), to make the T. adhaerens epsilon receptor resemble GluN2A and GluA2 receptors from human, reasoning that this mutation might enhance glutamate sensitivity. We also generated a single F732Y mutant (m1 variant), to assess the contribution of this amino acid to ligand specificity in isolation.
(§2) The cDNA of the T. adhaerens GluE1αA receptor was cloned into the mammalian expression vector pIRES2-EGFP, using a 5’ nested primer that inserted a mammalian consensus Kozak sequence of […] (Supplementary Table 5). Several mutants/variants of this receptor where also prepared via site directed mutagenesis using standard procedures and primers listed in Supplementary Table 5. For electrophysiological comparisons, we commissioned GenScript (USA) to synthesize the cDNA of the human GluA2 […] receptor (NCBI accession number NP_001077088.2), which was cloned into the pIRES2-EGFP vector with a Kozak sequence flanking the start codon and restriction enzymes SalI and BamHI at the 5’ and 3’ ends of the cDNA, respectively. Receptor cDNAs in the various pIRES2 constructs were transfected into Chinese Hamster Ovary-K1 (CHO-K1; Sigma) cells cultured in Dulbecco’s Modified Eagle Medium Nutrient Mixture F-12 (DMEM/F12) supplemented with 10% Fetal Bovine Serum (FBS) and 1% penicillin-streptomycin at 37°C. Transfections were done with 2 μg of plasmid vector using the transfecting reagent PolyJet^TM (SignaGen Laboratories, USA) according to the manufacturer’s instructions and plated onto glass coverslips in 35 mm dishes the next day. Transfected cells were incubated at 28°C for 2 to 4 days, then coverslips were transferred to a new 60 mm dish with 5 mL of external recording solution. […] Agonists and pharmacological compounds used in this study were dissolved in corresponding external solutions. […] Patch pipettes were pulled using a P-1000 micropipette puller (Sutter, USA), from thick-walled borosilicate tubing (1.5 and 0.86 outer and inner diameter, respectively), to a resistance of between 1 and 6 megaohms.

[2] = system: GluE1αA m3 variant (S653G, I655T, F732Y); assay type: cell-based, Trichoplax adhaerens
From the text: as §1, §2

[3] = molecular target: T. adhaerens GluE1αA receptor (wildtype) (Trichoplax adhaerens, UniProt B3SAW0); experiment: whole-cell patch clamp, agonist-evoked currents in CHO-K1 cells; assay type: cell-based; details: for normalized peak inward current, Avg: wild type, agonist 1 mM; for sensitivity to agonist: wildtype, 1 mM
[4] = ligand tested on its own at 10 mM
[5] = tested as a single mix each at 3 mM

Chain of T. adhaerens GluE1αA receptor (wildtype) (B3SAW0 entry or part of it): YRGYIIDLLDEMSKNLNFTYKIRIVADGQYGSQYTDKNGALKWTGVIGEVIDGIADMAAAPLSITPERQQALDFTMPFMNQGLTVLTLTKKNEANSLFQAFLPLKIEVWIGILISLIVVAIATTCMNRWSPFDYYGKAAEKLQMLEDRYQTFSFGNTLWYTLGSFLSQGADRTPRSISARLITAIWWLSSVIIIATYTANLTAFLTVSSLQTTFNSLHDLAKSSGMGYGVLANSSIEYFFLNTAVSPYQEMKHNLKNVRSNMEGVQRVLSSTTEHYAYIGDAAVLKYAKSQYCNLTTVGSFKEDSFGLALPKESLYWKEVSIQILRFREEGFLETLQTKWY

SMILES: CN[C@H](CC(=O)O)C(=O)O [NMDA, N-methyl-D-aspartate]
normalized peak inward current, Avg [1]: 0.0107 | normalized peak inward current, Avg ([2]; m3, agonist 1 mM): 0.00471 | normalized peak inward current, Avg [3]: 0.00229 | sensitivity to agonist [3]: insensitivity; also recorded: not sensitive

SMILES: N=C(N)NCCC[C@H](N)C(=O)O [arginine]
activation of ligand-gated current [3, 4]: no responses

SMILES: N[C@@H](Cn1oc(=O)[nH]c1=O)C(=O)O [quisqualate]
normalized peak inward current, Avg [1]: 0.00939 | normalized peak inward current, Avg ([2]; m3, agonist 1 mM): 0.01 | normalized peak inward current, Avg [3]: 0.00248 | sensitivity to agonist [3]: not sensitive

SMILES: NCCCC[C@H](N)C(=O)O [lysine]
activation of ligand-gated current [3, 5]: no responses

activation of ligand-gated current [3, 4]: no responses
SMILES: N[C@@H](CC(=O)O)C(=O)O [aspartate]

SMILES: Cc1onc(O)c1CC(N)C(=O)O (stereo not drawn) [AMPA, α-amino-3-hydroxy-5-methyl-4-isoxazolepropionic acid]
normalized peak inward current, Avg [1]: 0.00676 | normalized peak inward current, Avg ([2]; m3, agonist 1 mM): 0.36 | normalized peak inward current, single recording ([2]; m3, agonist 1 mM): 0.33 and 0.26 and 0.30 and 0.41 and 0.44 and 0.43 | sensitivity to agonist ([2]; m3 variant, 1 mM): moderate responses; also recorded: sensitive | peak amplitude relative to current elicited by 1 mM glutamate ([2]; m3 variant, 1 mM AMPA, slow desensitizing currents): roughly 36% | normalized peak inward current, Avg [3]: 0.00463 | sensitivity to agonist [3]: insensitivity; also recorded: not sensitive

SMILES: C=C(C)[C@H]1CN[C@H](C(=O)O)[C@H]1CC(=O)O [kainate]
normalized peak inward current, Avg [1]: 0.00537 | normalized peak inward current, Avg ([2]; m3, agonist 1 mM): 0.00374 | normalized peak inward current, Avg [3]: 0.00265 | sensitivity to agonist [3]: insensitivity; also recorded: not sensitive

activation of ligand-gated current [3, 5]: no responses
SMILES: N[C@@H](Cc1ccccc1)C(=O)O [phenylalanine]

SMILES: C[N+](C)(C)CC(=O)O [betaine]
activation of ligand-gated current [3, 4]: no responses

activation of ligand-gated current [3, 4]: no responses
SMILES: C[C@@H](O)[C@H](N)C(=O)O [threonine]

activation of ligand-gated current [3, 5]: no responses
SMILES: CC(C)C[C@H](N)C(=O)O [leucine]

SMILES: CSCC[C@H](N)C(=O)O [methionine]
activation of ligand-gated current [3]: no responses

activation of ligand-gated current [3, 5]: no responses
SMILES: CC[C@H](C)[C@H](N)C(=O)O [isoleucine]

activation of ligand-gated current [3, 5]: no responses
SMILES: N[C@@H](Cc1c[nH]cn1)C(=O)O [histidine]

From PMC12226733, “Evolution of iGluR ligand specificity, polyamine regulation, and ion selectivity inferred from a placozoan epsilon receptor” (Communications Biology, 2025)
